Columns and labels:
[1] = tested on: Phakopsora pachyrhizi (F129L); test: Protective control of soybean rust on soybeans (PHAKPA P6); format: in vivo; details: soybean rust F129L; for % PHAKPA (F129L) Disease level P6 at 4 ppm: protective P6, 4 ppm; for % PHAKPA (F129L) Disease level P6 at 16 ppm: protective P6, 16 ppm
[2] = tested on: Phakopsora pachyrhizi (F129L); test: Protective control of soybean rust on soybeans (PHAKPA P2); format: in vivo; details: soybean rust F129L; for % PHAKPA (F129L) Disease level P2 at 4 ppm: protective P2, 4 ppm; for % PHAKPA (F129L) Disease level P2 at 16 ppm: protective P2, 16 ppm

Compound: C=Cc1cccc(/C(=N\OC)C(=O)NC)c1CO/N=C(\C)c1ccccc1 [compound 400]
- % PHAKPA (F129L) Disease level P6 at 4 ppm [1]: 8%
- % PHAKPA (F129L) Disease level P6 at 16 ppm [1]: 0%
- % PHAKPA (F129L) Disease level P2 at 4 ppm [2]: 2%
- % PHAKPA (F129L) Disease level P2 at 16 ppm [2]: 0%

Compound: C#Cc1cccc(/C(C)=N/OCc2c(C)cccc2/C(=N\OC)C(=O)NC)c1F [compound 401]
- % PHAKPA (F129L) Disease level P6 at 4 ppm [1]: 32%
- % PHAKPA (F129L) Disease level P6 at 16 ppm [1]: 4%
- % PHAKPA (F129L) Disease level P2 at 4 ppm [2]: 17%
- % PHAKPA (F129L) Disease level P2 at 16 ppm [2]: 5%

Compound: CO/C=C(/C(=O)OC)c1cccc(C)c1CO/N=C(\C)c1cc(F)c(F)cc1CC(F)(F)F [compound 405]
- % PHAKPA (F129L) Disease level P6 at 4 ppm [1]: 70%
- % PHAKPA (F129L) Disease level P6 at 16 ppm [1]: 27%
- % PHAKPA (F129L) Disease level P2 at 4 ppm [2]: 97%
- % PHAKPA (F129L) Disease level P2 at 16 ppm [2]: 27%

Compound: CNC(=O)/C(=N/OC)c1cccc(C)c1CO/N=C(\C)c1cc(F)c(F)cc1CC(F)(F)F [compound 406]
- % PHAKPA (F129L) Disease level P6 at 4 ppm [1]: 67%
- % PHAKPA (F129L) Disease level P6 at 16 ppm [1]: 23%
- % PHAKPA (F129L) Disease level P2 at 4 ppm [2]: 97%
- % PHAKPA (F129L) Disease level P2 at 16 ppm [2]: 30%

Compound: CNC(=O)/C(=N/OC)c1cccc(C)c1CO/N=C(\C)c1ccc(Cc2ccccc2)cc1C(F)(F)F [compound 407]
- % PHAKPA (F129L) Disease level P6 at 4 ppm [1]: 17%
- % PHAKPA (F129L) Disease level P6 at 16 ppm [1]: 4%
- % PHAKPA (F129L) Disease level P2 at 4 ppm [2]: 12%
- % PHAKPA (F129L) Disease level P2 at 16 ppm [2]: 6%

Compound: CO/N=C(/C(=O)OC)c1cccc(C)c1CO/N=C(\C)c1ccc(Cc2ccccc2)cc1C(F)(F)F [compound 408]
- % PHAKPA (F129L) Disease level P6 at 4 ppm [1]: 33%
- % PHAKPA (F129L) Disease level P6 at 16 ppm [1]: 13%
- % PHAKPA (F129L) Disease level P2 at 4 ppm [2]: 30%
- % PHAKPA (F129L) Disease level P2 at 16 ppm [2]: 12%

Compound: CO/N=C(/C(=O)OC)c1cccc(C)c1CO/N=C(\C)c1cc(F)c(F)cc1C(F)(F)F [compound 409]
- % PHAKPA (F129L) Disease level P6 at 4 ppm [1]: 83%
- % PHAKPA (F129L) Disease level P6 at 16 ppm [1]: 73%
- % PHAKPA (F129L) Disease level P2 at 4 ppm [2]: 77%
- % PHAKPA (F129L) Disease level P2 at 16 ppm [2]: 40%

Compound: CNC(=O)/C(=N/OC)c1cccc(C)c1CO/N=C(\C)c1cc(F)c(F)cc1C(F)(F)F [compound 410]
- % PHAKPA (F129L) Disease level P6 at 4 ppm [1]: 35%
- % PHAKPA (F129L) Disease level P6 at 16 ppm [1]: 1%
- % PHAKPA (F129L) Disease level P2 at 4 ppm [2]: 9%
- % PHAKPA (F129L) Disease level P2 at 16 ppm [2]: 0%

Compound: CNC(=O)/C(=N/OC)c1cccc(C)c1CO/N=C(\C)c1ccc(Cl)c(F)c1CC(F)(F)F [compound 412]
- % PHAKPA (F129L) Disease level P6 at 4 ppm [1]: 40%
- % PHAKPA (F129L) Disease level P6 at 16 ppm [1]: 6%
- % PHAKPA (F129L) Disease level P2 at 4 ppm [2]: 47%
- % PHAKPA (F129L) Disease level P2 at 16 ppm [2]: 6%

Compound: CNC(=O)/C(=N/OC)c1cccc(C)c1CO/N=C(\C)c1ccc(-c2ccccc2)cc1C(F)(F)F [compound 413]
- % PHAKPA (F129L) Disease level P6 at 4 ppm [1]: 33%
- % PHAKPA (F129L) Disease level P6 at 16 ppm [1]: 15%
- % PHAKPA (F129L) Disease level P2 at 4 ppm [2]: 40%
- % PHAKPA (F129L) Disease level P2 at 16 ppm [2]: 15%

Compound: CO/N=C(/C(=O)OC)c1cccc(C)c1CO/N=C(\C)c1ccc(-c2ccccc2)cc1C(F)(F)F [compound 414]
- % PHAKPA (F129L) Disease level P6 at 4 ppm [1]: 53%
- % PHAKPA (F129L) Disease level P6 at 16 ppm [1]: 15%
- % PHAKPA (F129L) Disease level P2 at 4 ppm [2]: 53%
- % PHAKPA (F129L) Disease level P2 at 16 ppm [2]: 9%

Compound: CNC(=O)/C(=N/OC)c1cccc(C)c1CO/N=C(\C)c1ccc(/C(C)=N\OC)cc1OC(F)(F)F [compound 415]
- % PHAKPA (F129L) Disease level P6 at 4 ppm [1]: 67%
- % PHAKPA (F129L) Disease level P6 at 16 ppm [1]: 11%
- % PHAKPA (F129L) Disease level P2 at 4 ppm [2]: 47%
- % PHAKPA (F129L) Disease level P2 at 16 ppm [2]: 5%

Compound: CO/N=C(/C(=O)OC)c1cccc(C)c1CO/N=C(\C)c1ccc(Cc2ccccc2)cc1OC(F)(F)F [compound 416]
- % PHAKPA (F129L) Disease level P6 at 4 ppm [1]: 67%
- % PHAKPA (F129L) Disease level P6 at 16 ppm [1]: 25%
- % PHAKPA (F129L) Disease level P2 at 4 ppm [2]: 57%
- % PHAKPA (F129L) Disease level P2 at 16 ppm [2]: 27%

Compound: CO/N=C(/C)c1ccc(/C(C)=N/OCc2c(C)cccc2/C(=N\OC)C(=O)OC)c(C(F)(F)F)c1 [compound 417]
- % PHAKPA (F129L) Disease level P6 at 4 ppm [1]: 63%
- % PHAKPA (F129L) Disease level P6 at 16 ppm [1]: 22%
- % PHAKPA (F129L) Disease level P2 at 4 ppm [2]: 35%
- % PHAKPA (F129L) Disease level P2 at 16 ppm [2]: 18%

Compound: CO/N=C(/C)c1ccc(/C(C)=N/OCc2c(C)cccc2/C(=N\OC)C(=O)OC)c(OC(F)(F)F)c1 [compound 418]
- % PHAKPA (F129L) Disease level P6 at 4 ppm [1]: 73%
- % PHAKPA (F129L) Disease level P6 at 16 ppm [1]: 57%
- % PHAKPA (F129L) Disease level P2 at 4 ppm [2]: 70%
- % PHAKPA (F129L) Disease level P2 at 16 ppm [2]: 33%

Compound: CNC(=O)/C(=N/OC)c1cccc(C)c1CO/N=C(\C)c1ccc(Cc2ccccc2)cc1OC(F)(F)F [compound 419]
- % PHAKPA (F129L) Disease level P6 at 4 ppm [1]: 60%
- % PHAKPA (F129L) Disease level P6 at 16 ppm [1]: 12%
- % PHAKPA (F129L) Disease level P2 at 4 ppm [2]: 40%
- % PHAKPA (F129L) Disease level P2 at 16 ppm [2]: 18%

Compound: CNC(=O)/C(=N/OC)c1cccc(C)c1CO/N=C(\C)c1ccc(/C(C)=N\OC)cc1C(F)(F)F [compound 420]
- % PHAKPA (F129L) Disease level P6 at 4 ppm [1]: 12%
- % PHAKPA (F129L) Disease level P6 at 16 ppm [1]: 1%
- % PHAKPA (F129L) Disease level P2 at 4 ppm [2]: 8%
- % PHAKPA (F129L) Disease level P2 at 16 ppm [2]: 0%

Compound: CO/N=C(/C(=O)OC)c1cccc(C)c1CO/N=C(\C)c1cccc(Cl)c1C(F)(F)F [compound 421]
- % PHAKPA (F129L) Disease level P6 at 4 ppm [1]: 87%
- % PHAKPA (F129L) Disease level P6 at 16 ppm [1]: 57%
- % PHAKPA (F129L) Disease level P2 at 4 ppm [2]: 100%
- % PHAKPA (F129L) Disease level P2 at 16 ppm [2]: 33%

Compound: CNC(=O)/C(=N/OC)c1cccc(C)c1CO/N=C(\C)c1cccc(Cl)c1C(F)(F)F [compound 422]
- % PHAKPA (F129L) Disease level P6 at 4 ppm [1]: 32%
- % PHAKPA (F129L) Disease level P6 at 16 ppm [1]: 2%
- % PHAKPA (F129L) Disease level P2 at 4 ppm [2]: 30%
- % PHAKPA (F129L) Disease level P2 at 16 ppm [2]: 0%

Compound: CO/N=C(/C(=O)OC)c1cccc(C)c1CO/N=C(\C)c1ccc(C#N)cc1C(F)(F)F [compound 423]
- % PHAKPA (F129L) Disease level P6 at 4 ppm [1]: 93%
- % PHAKPA (F129L) Disease level P6 at 16 ppm [1]: 53%
- % PHAKPA (F129L) Disease level P2 at 4 ppm [2]: 100%
- % PHAKPA (F129L) Disease level P2 at 16 ppm [2]: 57%

Compound: CNC(=O)/C(=N/OC)c1cccc(C)c1CO/N=C(\C)c1ccc(C#N)cc1C(F)(F)F [compound 424]
- % PHAKPA (F129L) Disease level P6 at 4 ppm [1]: 97%
- % PHAKPA (F129L) Disease level P6 at 16 ppm [1]: 50%
- % PHAKPA (F129L) Disease level P2 at 4 ppm [2]: 100%
- % PHAKPA (F129L) Disease level P2 at 16 ppm [2]: 27%

Compound: CO/N=C(/C(=O)OC)c1cccc(C)c1CO/N=C(\C)c1ccc(-c2ccc(F)cc2)cc1C(F)(F)F [compound 425]
- % PHAKPA (F129L) Disease level P6 at 4 ppm [1]: 53%
- % PHAKPA (F129L) Disease level P6 at 16 ppm [1]: 40%
- % PHAKPA (F129L) Disease level P2 at 4 ppm [2]: 27%
- % PHAKPA (F129L) Disease level P2 at 16 ppm [2]: 28%

Compound: CNC(=O)/C(=N/OC)c1cccc(C)c1CO/N=C(\C)c1ccc(-c2ccc(F)cc2)cc1C(F)(F)F [compound 426]
- % PHAKPA (F129L) Disease level P6 at 4 ppm [1]: 27%
- % PHAKPA (F129L) Disease level P6 at 16 ppm [1]: 10%
- % PHAKPA (F129L) Disease level P2 at 4 ppm [2]: 7%
- % PHAKPA (F129L) Disease level P2 at 16 ppm [2]: 1%

Compound: CO/N=C(/C(=O)OC)c1cccc(C)c1CO/N=C(\C)c1c(Cl)cc(Cl)cc1OC(F)(F)F [compound 427]
- % PHAKPA (F129L) Disease level P6 at 4 ppm [1]: 60%
- % PHAKPA (F129L) Disease level P6 at 16 ppm [1]: 47%
- % PHAKPA (F129L) Disease level P2 at 4 ppm [2]: 100%
- % PHAKPA (F129L) Disease level P2 at 16 ppm [2]: 90%

Compound: CNC(=O)/C(=N/OC)c1cccc(C)c1CO/N=C(\C)c1c(Cl)cc(Cl)cc1OC(F)(F)F [compound 428]
- % PHAKPA (F129L) Disease level P6 at 4 ppm [1]: 83%
- % PHAKPA (F129L) Disease level P6 at 16 ppm [1]: 20%
- % PHAKPA (F129L) Disease level P2 at 4 ppm [2]: 70%
- % PHAKPA (F129L) Disease level P2 at 16 ppm [2]: 11%

Source: patent US20230172204A1 (BASF SE, priority 2020, published 2023)
